In brackets after ≈: the same amount, converted by molar mass. Where two headings read alike, the source gives them in different places. No end group written: not given here.
What was measured:
lipase = details: cited from earlier work; for IC50 on lipase: previously reported
Source text: The inhibition mechanisms of crude lipopeptide, fengycin, and surfactin on lipase catalysis were studied.

[1] = reported to cause certain side effects; cited from earlier work
Source text: Dietary and lifestyle modifications such as calorie restriction and physical exercises are the common strategies adopted to control body weight; further, these methods have limited anti-obesity effects. It has previously been reported that lipase inhibition is a potential strategy for counteracting obesity. Digestive lipase hydrolyses non-absorbable dietary triglycerides to smaller absorbable molecules of monoglycerides and free fatty acids, which are absorbed by the intestine. Inhibiting digestive lipase can reduce intestinal fat absorption. Human pancreatic lipase is the main enzyme ...

Mucor miehei lipase [2] = target: T1, Mucor miehei lipase (Mucor miehei, UniProt P19515 95-363)
T1 sequence (looked up): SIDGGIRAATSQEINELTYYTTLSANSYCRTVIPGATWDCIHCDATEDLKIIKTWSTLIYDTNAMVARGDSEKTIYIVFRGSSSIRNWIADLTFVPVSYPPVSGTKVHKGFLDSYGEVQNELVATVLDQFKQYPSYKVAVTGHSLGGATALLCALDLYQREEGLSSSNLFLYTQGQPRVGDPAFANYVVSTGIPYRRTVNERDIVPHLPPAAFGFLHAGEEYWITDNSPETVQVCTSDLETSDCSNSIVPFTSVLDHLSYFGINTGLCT

Mucor miehei lipase [3] = target: T1, Mucor miehei lipase; experiment: other fluorescence titration; quenching of the intrinsic fluorescence of lipase (emission peak 338 nm) by crude lipopeptide at 0-0.457 mg/mL; Stern-Volmer and double-logarithmic plots
Mucor miehei lipase [4] = target: T2, Mucor miehei lipase (Rhizomucor miehei, UniProt P19515); experiment: Inhibition mechanism and type of lipopeptides on lipase (activity vs enzyme concentration; Lineweaver-Burk); format: biochemical; design: purchased Sigma-Aldrich (St. Louis, MO); details: for Inhibition effect: Type: Lineweaver-Burk plot, Tris-HCl buffer, 100 µL lipase; for IC50, Calculated: calculated value of Table 2; for Inhibition effect: Mechanisms: remaining enzyme activity vs enzyme concentration, lines intersecting at the origin, fixed substrate; for Inhibition constant KI: secondary plot of 1/Vm versus inhibitor concentration
T2 sequence (P19515 95-363): T1 sequence (looked up)
Method: The inhibition mechanisms were studied by fixing the concentration of substrate and changing the lipopeptides and enzymes to monitor enzymatic reaction. The inhibition types were determined based on the Lineweaver-Burk plot[22]; this reaction system contained different concentrations of substrate and lipopeptide and 100 µL of lipase in Tris-HCl buffer. Then, the inhibition constant was calculated from a secondary plot of 1/Vm versus the inhibitor concentration.

Mucor miehei lipase [5] = target: T2, Mucor miehei lipase; experiment: Lipase inhibition (4-NPP hydrolysis, 405 nm); details: relative to iturin
Method: Lyophilised powder of Mucor miehei lipase (EC3.1.1.3), 4-Nitrophenyl palmitate (4-NPP), iturin, and surfactin were purchased from Sigma-Aldrich (St. Louis, MO). Acetonitrile, hydrochloric acid (HCl) and Tris were purchased from Sinopharm (Shanghai, China).
The lipase inhibition was determined according to the method described by Liu et al.[21] 10 µg/mL lipase in water and 7.5 mmol/L 4-NPP in acetonitrile solutions were prepared. […] The 1 mL reaction mixture contained 0.75 mM 4-NPP, 0.4 µg/mL lipase, and different concentrations of inhibitor in Tris-HCl buffer (pH 7.8). The reaction was carried out at 37 °C and the detection wavelength was set at 405 nm.

Mucor miehei lipase [6] = target: T1, Mucor miehei lipase; remark: listed apart in the source
[7] = from 72 mN/m; cited from earlier work
Source text: In fact, it has been reported that bacterial cyclic lipopeptides are the most popular amphiphilic molecules that are excellent surface active compounds[12]. The genus Bacillus is described as an efficient source of lipopeptide biosurfactants. The Bacillus lipopeptides are divided into three different families, including iturins, surfactins, and fengycins, ...

Mucor miehei lipase [8] = target: T1, Mucor miehei lipase; experiment: cell-based or functional assay

O=C(O)c1ccco1 [furoic acid]
inhibition mechanism on lipase (lipase): reversible
IC50 on lipase (lipase): 242 µg/mL (≈ 2.16 mM)

CCCCCCCCCCC[C@@H](C[C@@H]1OC(=O)[C@H]1CCCCCC)OC(=O)[C@H](CC(C)C)NC=O [orlistat]
inhibition mechanism on lipase (lipase): irreversible
side effects [1]: oily stools, oily spotting, and flatulence

O=C(O)C(=O)O [oxalic acid]
inhibition mechanism on lipase (lipase): reversible
IC50 on lipase (lipase): 1425 µg/mL (≈ 15.8 mM)

crude lipopeptide from Bacillus velezensis FJAT-52631
IC50 (calculated) of inhibition of lipase activity (Mucor miehei lipase [2]): 8 µg/mL
IC50 (measured) of inhibition of lipase activity (4-NPP hydrolysis) (Mucor miehei lipase [2]): 11 µg/mL
Ksv (Stern-Volmer quenching constant) (Mucor miehei lipase [3]): 0.525 L/g
stoichiometry N (Mucor miehei lipase [3]): 0.78

fengycin
Inhibition effect: Type (Mucor miehei lipase [4]): Competitive inhibition
Inhibition effect: Type (Mucor miehei lipase [4]; listed as fengycin): competitive
IC50, Calculated (Mucor miehei lipase [4]): 2 µg/mL
Inhibition effect: Mechanisms (Mucor miehei lipase [4]): Reversible
Inhibition constant KI (Mucor miehei lipase [4]): 1 µg/mL
stronger lipase inhibition activity than iturin (Mucor miehei lipase [5]): about 10 -fold

iturin standard (peptide)
IC50 of inhibition of lipase activity (4-NPP hydrolysis) (Mucor miehei lipase [6]): 56 µg/mL

purified fengycin from Bacillus velezensis FJAT-52631 (peptide)
IC50 (calculated) of inhibition of lipase activity (Mucor miehei lipase [2]): 2 µg/mL
IC50 (measured) of inhibition of lipase activity (4-NPP hydrolysis) (Mucor miehei lipase [2]): 5 µg/mL

surfactin
surface tension of water lowered to [7]: 27 mN/m
Inhibition effect: Type (Mucor miehei lipase [4]): Competitive inhibition
Inhibition effect: Type (Mucor miehei lipase [4]; listed as surfactin): competitive
IC50, Calculated (Mucor miehei lipase [4]): 1 µg/mL
Inhibition effect: Mechanisms (Mucor miehei lipase [4]): Reversible
Inhibition constant KI (Mucor miehei lipase [4]): 1 µg/mL
stronger lipase inhibition activity than iturin (Mucor miehei lipase [5]): about 10 -fold

B1: surfactin standard (peptide)
chain: ELLVDLL
modifications: not fully specified (residues 3, 6, N-terminus, bridges); also: cyclic peptide ring with beta-hydroxy fatty acid chain, attachment not given here
IC50 (calculated) of inhibition of lipase activity (Mucor miehei lipase [8]): 1 µg/mL
IC50 (measured) of inhibition of lipase activity (4-NPP hydrolysis) (Mucor miehei lipase [8]): 5 µg/mL

— publication PMC7170388, “Strong inhibitory activities and action modes of lipopeptides on lipase” (Journal of Enzyme Inhibition and Medicinal Chemistry, 2020)
